Data published in US6680307B1, “Use of ibandronate for promoting osseointegration of endoprostheses” (Roche Diagnostics GmbH, priority 1998, dated 2004).

Tests used:
bone-tooth implant = conditions: treatment for 4 weeks (1 week before the operation and 3 weeks after); cited from earlier work
[1] = test system: titanium implants and hydroxyl apatite-coated implants in the bone of 6 month-old Sprague Dawley rats; assay: Time sequence of osseointegration of implants in rat femur (Example 1, histomorphometry); format: in vivo
Experimental: (§1) 6-month old female Spregue-Dawley rats were kept in cages and subjected to a 12-hour day and night rhythm. They had free access to food and water. The animals were kept and fed in accordance with legal regulations and the research was carried out with the approval and under the supervision of the Darmstadt Governmental Presidium.
(§2) The animals were divided at random among the various test groups. They were anaethesized by intraperitoneal administration of ketamine (75 mg/kg) and xylazine (5 mg/kg). Both back legs were sharped and disinfected with Betaisadonna solution. Medioparapatellar arthrotomy of the knee joint was carried out under aseptic conditions and the patella was laterally dislocated. The medullary canal was opened distally in the intercondylar notch and the canal was drilled with a 1.0 mm diameter Kirchner wire down to the proximal metaphysis of the femur. A titanium Kirchner wire was then inserted into the right femur and a hydroxyl apatite-coated Kirchner wire into the left femur as far as the proximal metaphysis. The access hole was closed with bone wax, the patella was replaced, the extensor apparatus of the refined leg was reconstructed, the soft tissue was adapted and the skin was closed by an intracutaneous seam. The back legs were then tested for normal post-operative movement. The animals were at liberty to move freely in their cages and the activity and the load on the hind legs was checked daily.
(§3) Ibandronate or 0.9% NaCl was administered daily as per Examples 1 and 2. After the preset treatment time the animals were euthanased in a carbon dioxide chamber and directly afterwards the two femurs were taken out, completely freed from soft tissue and fixed in alcohol for subsequent histerlogical treatment. […] Particular attention was given to the areas where a change in the bone occurred such as an increase or decrease in trabecular bone, a change in bone density, loosening seams on the implant, periostal or endostal changes. Evaluation in this case was purely descriptive.
(§4) Description of production of preparations by the cut microsection technique for producing histological sections of conventional non-cuttable tissue after Prof. Donath. (K. Donath, G. Breuner: A method for the study of undecalcified bones and teeth with attached soft tissue. The Saege-Schliff (sawing and grinding) technique., J. Oral Pathology 1982, 11:318-26). […]
(§5) Histological investigation of bones under the optical microscope gives knowledge about the overall structure and the distribution of bone components. […] Quantitative evaluation of the results was by histomorphometry.
(§6) The bone-covered area on the metal implant was shown and calculated by histomorphometry, using special software. […]

[2] = test system: titanium implants and hydroxyl apatite-coated implants in the bone of 6-month old rats; assay: Osseointegration of implants in rat femur at a defined time, daily versus bolus administration (Example 2); format: in vivo
Experimental: as §1, §2, §3, §4, §5, §6

periprosthetic bone loss = conditions: treatment with higher doses; cited from earlier work

In the case of `O=P(O)(O)C(Cl)(Cl)P(=O)(O)O` [Clodronate], the “Osteogenesis (bone formation) compared with untreated patients” value (bone-tooth implant) is given as “more intensive”.

In the case of `CCCCCN(C)CCC(O)(P(=O)(O)O)P(=O)(O)O` [ibandronate, 1-hydroxy-3-(N-methyl-N-pentyl)aminopropyl-1,1-diphosphonic acid], the “Temporal advantage after treatment versus untreated group” value ([1]; 25 μg FAE/kg/d daily s.c.) is reported as “more than 50%”, the “Time to complete integration of the implant” value ([1]; 25 μg FAE/kg/d daily s.c., untreated group nearly complete ingrowth after 37 days) is reported as 18 days and the “Time to complete integration” value ([1]; daily dose of 20 to 30 μg/kg body weight (i.v. equivalent)) is reported as 15 to 20 days. The “Osseointegration compared with the untreated group” value ([1]; daily subcutaneous ibandronate after implantation, rats) was “appreciably improved”, the “Increase in osseointegration compared with the control group” value ([2]; 2a: s.c. 25 μg FAE/kg/d for 15-20 days) was 50% and the “Increase in osseointegration compared with the control group” value ([2]; 2b: s.c. bolus administration, 25 μg FAE/kg/d) was 50%. For the same compound, the “Difference in osseointegration between bolus-treated groups and control group” value ([2]; 2b: s.c. bolus administration, total dose of 1, 5 and 25 μg FAE/kg/d) was “Very significant differences” and the “Difference in osseointegration between bolus administration and cumulative administration” value ([2]; 2c: bolus versus cumulative administration over the entire period) was “No significant differences”.

For `NCCCC(O)(P(=O)(O)O)P(=O)(O)O` [alendronate], the Bone resorption (periprosthetic bone loss) is listed as “considerably slowed down”.
